ChEMBL document CHEMBL1201862, “PubChem BioAssay data set” (2004)
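A five-concentration, 48-hour dose response in 96-well plates underlies each endpoint, interpolated linearly between surrounding concentrations. GI50 = concentration required for 50% inhibition of growth.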 The source made the active and inactive calls. Cut-off read from the data, not from the text of the source: active = GI50 up to about 1.1 µM and inactive = higher.

How the values were obtained:
Experiment in all cases: growth of human tumour cells (NCI), 48 h
DLD-1 = system: DLD-1
HOP-18 = system: HOP-18
XF498 = system: XF498
M19-MEL = system: M19-MEL
SNB-78 = system: SNB-78
LXFL 529 = system: LXFL 529
DMS-114 = system: DMS-114
KM-20L2 = system: KM-20L2
RXF 631 = system: RXF 631

| SMILES | GI50 (DLD-1) | GI50 (HOP-18) | GI50 (XF498) | GI50 (M19-MEL) | GI50 (SNB-78) | GI50 (LXFL 529) | GI50 (DMS-114) | GI50 (KM-20L2) | GI50 (RXF 631) |
| --- | --- | --- | --- | --- | --- | --- | --- | --- | --- |
| Oc1cc(-c2ccc3c(c2)OCO3)nc2cc3c(cc12)OCO3 | 55.8 µM (inactive) | 72.6 µM (inactive) | 31.8 µM (inactive) | 20.5 µM (inactive) | 43 µM (inactive) | 68.4 µM (inactive) | – | – | – |
| C=CCNC(=O)NCCCCC(NC(C)=O)C(=O)NCc1ccccc1 (centres undefined) | – | > 100 µM (inactive) | > 100 µM (inactive) | > 100 µM (inactive) | – | > 100 µM (inactive) | > 100 µM (inactive) | > 100 µM (inactive) | – |
| Cc1ccc(C(=O)N2CCN(C(=O)c3ccc(C)cc3)c3ccccc32)cc1 | 4.23 µM (inactive) | 17.7 µM (inactive) | 4.93 µM (inactive) | 4.39 µM (inactive) | 6.97 µM (inactive) | 6.5 µM (inactive) | 3.78 µM (inactive) | 3.28 µM (inactive) | – |
| CCC1(O)C(=O)OCc2c1cc1n(c2=O)Cc2c-1nc1ccccc1c2OC (centres undefined) | 0.488 µM (active) | 0.372 µM (active) | – | 0.0438 µM (active) | 2.13 µM (inactive) | 0.434 µM (active) | < 0.0117 µM (active) | 0.0512 µM (active) | – |
| COc1ccc2c(c1)Oc1cc(O)ccc1[C@@H]2c1ccccc1C(=O)NC(C)c1ccccc1 (some centres undefined) | 13.9 µM (inactive) | – | – | 15.9 µM (inactive) | 13.3 µM (inactive) | 14.2 µM (inactive) | 12.7 µM (inactive) | 14.9 µM (inactive) | – |
| Cc1ccc(C(=O)NCCN(C)C)c2nc3ccccc3cc12 | 1.32 µM (inactive) | 1.92 µM (inactive) | 1.38 µM (inactive) | 2.31 µM (inactive) | 13.2 µM (inactive) | 2.15 µM (inactive) | 2.78 µM (inactive) | 0.661 µM (active) | 0.817 µM (active) |
| N#C/C(=C1\SCC(=O)N1c1ccccc1)c1nc2ccccc2[nH]1 | > 100 µM (inactive) | – | > 100 µM (inactive) | > 100 µM (inactive) | > 100 µM (inactive) | > 100 µM (inactive) | > 100 µM (inactive) | > 100 µM (inactive) | – |
| Cc1ccc(NC(=O)CC/C(CC(=O)C(C)(C)C)=N\NC(=O)C[n+]2ccccc2)cc1C | – | > 100 µM (inactive) | 87.7 µM (inactive) | > 100 µM (inactive) | > 100 µM (inactive) | > 100 µM (inactive) | 73.6 µM (inactive) | > 100 µM (inactive) | – |
| O=C(O)CNS(=O)(=O)c1ccc(NC(=O)CI)cc1 | 26.9 µM (inactive) | 34.3 µM (inactive) | 14.6 µM (inactive) | 32.4 µM (inactive) | – | 6.97 µM (inactive) | – | 23.1 µM (inactive) | 16.4 µM (inactive) |
| COP(=O)(OC)C(NC(=O)C(F)(F)F)(c1ccccc1)C(F)(F)F (centres undefined) | > 100 µM (inactive) | > 100 µM (inactive) | > 100 µM (inactive) | > 100 µM (inactive) | – | – | > 100 µM (inactive) | > 100 µM (inactive) | – |
| O=C1CC[C@@H](S(=O)(=O)c2ccccc2)[C@@H](/C=C/c2ccccc2)O1 | – | > 100 µM (inactive) | < 0.01 µM (active) | > 100 µM (inactive) | – | > 100 µM (inactive) | > 100 µM (inactive) | > 100 µM (inactive) | – |
| CC(C)(C)CC(C)(C)NCC(O)COc1ccc(C(C)(C)c2ccc(OCC(O)CNC(C)(C)CC(C)(C)C)cc2)cc1 (centres undefined) | 0.832 µM (active) | – | 1.64 µM (inactive) | 1.53 µM (inactive) | 1.95 µM (inactive) | 0.357 µM (active) | 1.76 µM (inactive) | 1.47 µM (inactive) | – |
| COC(=O)C1=C(C[S+]([O-])c2ccc([N+](=O)[O-])cc2[N+](=O)[O-])C2C=CC1C2 (centres undefined) | 19.1 µM (inactive) | 29.4 µM (inactive) | 28.5 µM (inactive) | 20.1 µM (inactive) | 48.3 µM (inactive) | 22.2 µM (inactive) | 23.4 µM (inactive) | 22 µM (inactive) | 17.8 µM (inactive) |
| N#CC(C#N)=c1ccc(=C2NCC3CCCN23)cc1 (centres undefined) | – | > 100 µM (inactive) | – | > 100 µM (inactive) | > 100 µM (inactive) | > 100 µM (inactive) | > 100 µM (inactive) | > 100 µM (inactive) | – |
| CC(=O)NC1=C(Nc2ccc(C)cc2)C(=O)c2ccccc2C1=O | 19.7 µM (inactive) | 12.2 µM (inactive) | 24.9 µM (inactive) | 8.43 µM (inactive) | 44.9 µM (inactive) | 23.6 µM (inactive) | 14.5 µM (inactive) | 24.1 µM (inactive) | – |
| COC1O[C@@H]2COC(C)(C)O[C@@H]2C(=O)N1Nc1ccc([N+](=O)[O-])cc1 (some centres undefined) | 35.1 µM (inactive) | > 100 µM (inactive) | > 100 µM (inactive) | > 100 µM (inactive) | – | 55.1 µM (inactive) | – | > 100 µM (inactive) | – |
| COC(=O)[C@@]12C3=NO[C@]1(C(=O)OC)C(O[Si](C)(C)C(C)(C)C)C1OC(C)(C)OC1[C@@H]2[C@@H](OCc1ccccc1)CC3 (some centres undefined) | > 100 µM (inactive) | > 100 µM (inactive) | – | > 100 µM (inactive) | – | 46.3 µM (inactive) | 49.5 µM (inactive) | > 100 µM (inactive) | – |
| CC(C)(O)C(O)COc1c2c(cc3oc(=O)ccc13)OCO2 (centres undefined) | > 100 µM (inactive) | > 100 µM (inactive) | > 100 µM (inactive) | > 100 µM (inactive) | – | > 100 µM (inactive) | > 100 µM (inactive) | > 100 µM (inactive) | – |
